# Assay results published in patent publication US8906960B2, “Synergistic effect of tocotrienols and curcumin” (Malaysian Palm Oil Board, priority 2010, dated 2014).
# How the values were obtained:
# [1] = test system: vascular cell adhesion molecule-1 (VCAM-1) expression; THP-1 adhesion to HUVECs; conditions: suppression of VCAM-1 expression and THP-1 adhesion to HUVECs; cited from earlier work
# [2] = test system: PC-3, a prostate cancer cell; conditions: PC-3 prostate cancer cell; cited from earlier work
# [3] = test system: MCF-7 human breast cancer cells; assay: Cell growth experiment: inhibition of proliferation of MCF-7 cells (viable cell count after 72 hours); assay type: cell-based
# Method: Stock solution of TRF and curcumin was prepared in dimethyl sulfoxide (DMSO) at a concentration of 10 mg/mL. For cell growth experiments (as described below), treatments of TRF and curcumin were diluted in phenol red-free RPMI 1640 medium supplemented with 5% dextran-charcoal-treated […]) to final concentrations of 1-100 μM in test medium. MCF-7 cells were suspended from T75 flask by treatment of trypsin to an equal volume of phenol red free RPMI 1640 medium supplemented with 5% dextran-charcoal treated […]), 1% penicillin-streptomycin, 1% L-glutamine and counted on a haemocytometer. Cells were added to the required volume of phenol red free RPMI medium supplemented with 5% dextran-charcoal treated […]), 1% penicillin-streptomycin, 1% L-glutamine. […] MCF-7 cells were seeded in each well of 24-well tissue culture dishes. […] Cell proliferation was measured by using an automated particle counter, Beckman Coulter Particle Counter. […] The nuclei released were counted in isoton on a Coulter particle counter. […] The IC50 value was calculated as an average of three generated value of each replicates. Comparisons between means of six groups were assessed for significance. […]
# [4] = test system: B16F-10 melanoma lung metastasis; conditions: cited from earlier work
smiles,measurement,setting,value
CC(C)=CCC/C(C)=C/CC/C(C)=C/CC[C@]1(C)CCc2c(C)c(O)c(C)c(C)c2O1 [α-tocotrienol],Efficacy relative to α-tocopherol,[1],10 fold
CC(C)=CCC/C(C)=C/CC/C(C)=C/CC[C@]1(C)CCc2cc(O)cc(C)c2O1 [δ-tocotrienol],Effect on proliferation of PC-3,[2],inhibit the proliferation
Cc1c(C)c2c(c(C)c1O)CC[C@@](C)(CCC[C@H](C)CCC[C@H](C)CCCC(C)C)O2 [α-tocopherol],Effect on proliferation of PC-3,[2],no significant effects
COc1cc(/C=C/C(=O)CC(=O)/C=C/c2ccc(O)c(OC)c2)ccc1O [Curcumin],IC50,"[3]; Homo sapiens, MCF7, MCF-7 cells, 72 hours, 10^-8 M estradiol, test compounds 1-100 μM, combinations with 1 μM of the second ingredient",25.3 µM
same,Effect of curcumin on the anti-proliferative effect of tocotrienols,[3]; estrogen-positive MCF-7 human breast cancer cells in vitro,synergistically enhanced the anti-proliferative effect of tocotrienols
same,Increase of life span of the animals,[4]; mice treated with curcumin,143.85%
same,Reduction of the number of lung tumor nodules,"[4]; oral administration, 200 nmol/kg body weight, mice",80%
CC(C)=CCC/C(C)=C/CC/C(C)=C/CC[C@]1(C)CCc2cc(O)c(C)c(C)c2O1 [γ-tocotrienol],Effect on proliferation of PC-3,[2],inhibit the proliferation
